# Test results taken from article PMC12090182, “Repurposing of the RIPK1-Selective Benzo[1,4]oxazepin-4-one Scaffold for the Development of a Type III LIMK1/2 Inhibitor” (ACS Chemical Biology, 2025).
# What was measured:
# Test in all cases: scanMAX KINOMEscan (Eurofins)
# Format in all cases: binding
# BUB1 = BUB1 (Homo sapiens, UniProt O43683); conditions: 1000 nM, read-out: Percent Control
# Text: (§1) Supplement cb5c00097_si_002.xlsx, sheet "Table S6 (Eurofins Selectivity)" | column: Percent Control
# CAMK1G = CAMK1G (Homo sapiens, UniProt Q96NX5); conditions: 1000 nM, read-out: Percent Control
# Text: as §1
# CAMK2B = CAMK2B (Homo sapiens, UniProt Q13554); conditions: 1000 nM, read-out: Percent Control
# Text: as §1
# CAMK2D = CAMK2D (Homo sapiens, UniProt Q13557); conditions: 1000 nM, read-out: Percent Control
# Text: as §1
# DLK = DLK (Homo sapiens, UniProt Q12852); conditions: 1000 nM, read-out: Percent Control
# Text: as §1
# DMPK2 = DMPK2 (Homo sapiens, UniProt Q6DT37); conditions: read-out: Percent Control
# DMPK2, sequence (Q6DT37 whole entry): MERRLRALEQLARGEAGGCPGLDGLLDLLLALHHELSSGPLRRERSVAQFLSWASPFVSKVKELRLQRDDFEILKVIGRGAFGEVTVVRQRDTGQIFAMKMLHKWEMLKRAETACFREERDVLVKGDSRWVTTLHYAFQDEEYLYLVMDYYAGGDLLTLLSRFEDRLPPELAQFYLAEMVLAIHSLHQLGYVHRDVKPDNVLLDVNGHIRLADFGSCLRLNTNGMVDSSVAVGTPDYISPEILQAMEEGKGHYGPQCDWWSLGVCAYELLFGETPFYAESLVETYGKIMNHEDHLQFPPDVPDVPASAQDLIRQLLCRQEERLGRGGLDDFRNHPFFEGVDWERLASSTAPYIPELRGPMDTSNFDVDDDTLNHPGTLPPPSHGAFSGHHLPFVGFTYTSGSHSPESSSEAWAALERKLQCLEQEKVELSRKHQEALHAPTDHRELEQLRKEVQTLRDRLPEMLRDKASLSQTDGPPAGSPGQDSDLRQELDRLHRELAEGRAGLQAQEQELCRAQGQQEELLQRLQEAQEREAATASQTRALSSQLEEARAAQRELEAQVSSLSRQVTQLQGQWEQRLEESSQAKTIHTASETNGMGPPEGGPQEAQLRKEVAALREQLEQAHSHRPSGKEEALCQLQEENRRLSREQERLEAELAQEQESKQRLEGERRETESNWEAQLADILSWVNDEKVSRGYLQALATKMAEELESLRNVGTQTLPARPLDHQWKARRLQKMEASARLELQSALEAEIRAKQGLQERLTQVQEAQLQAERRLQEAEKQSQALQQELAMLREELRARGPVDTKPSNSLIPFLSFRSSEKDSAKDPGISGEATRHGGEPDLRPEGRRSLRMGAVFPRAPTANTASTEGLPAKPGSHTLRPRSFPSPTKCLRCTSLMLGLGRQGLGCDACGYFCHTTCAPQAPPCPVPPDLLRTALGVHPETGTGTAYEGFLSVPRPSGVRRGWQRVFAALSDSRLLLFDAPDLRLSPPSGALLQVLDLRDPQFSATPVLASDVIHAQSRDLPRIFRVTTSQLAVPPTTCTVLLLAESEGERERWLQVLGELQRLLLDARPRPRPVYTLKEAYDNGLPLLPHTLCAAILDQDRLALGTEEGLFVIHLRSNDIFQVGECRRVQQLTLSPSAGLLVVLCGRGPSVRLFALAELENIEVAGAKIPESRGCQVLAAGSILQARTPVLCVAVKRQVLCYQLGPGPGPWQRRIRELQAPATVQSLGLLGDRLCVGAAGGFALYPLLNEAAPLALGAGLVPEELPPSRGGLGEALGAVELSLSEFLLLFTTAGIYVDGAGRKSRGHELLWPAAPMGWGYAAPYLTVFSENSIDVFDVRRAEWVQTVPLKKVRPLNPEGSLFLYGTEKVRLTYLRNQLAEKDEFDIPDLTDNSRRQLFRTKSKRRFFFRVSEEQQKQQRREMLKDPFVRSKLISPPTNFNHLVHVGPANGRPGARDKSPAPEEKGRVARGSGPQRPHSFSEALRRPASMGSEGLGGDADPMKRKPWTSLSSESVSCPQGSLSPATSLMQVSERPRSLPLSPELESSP
# Text: as §1
# EPHA3 = EPHA3 (Homo sapiens, UniProt P29320); conditions: read-out: Percent Control
# EPHA3, sequence (P29320 21-983): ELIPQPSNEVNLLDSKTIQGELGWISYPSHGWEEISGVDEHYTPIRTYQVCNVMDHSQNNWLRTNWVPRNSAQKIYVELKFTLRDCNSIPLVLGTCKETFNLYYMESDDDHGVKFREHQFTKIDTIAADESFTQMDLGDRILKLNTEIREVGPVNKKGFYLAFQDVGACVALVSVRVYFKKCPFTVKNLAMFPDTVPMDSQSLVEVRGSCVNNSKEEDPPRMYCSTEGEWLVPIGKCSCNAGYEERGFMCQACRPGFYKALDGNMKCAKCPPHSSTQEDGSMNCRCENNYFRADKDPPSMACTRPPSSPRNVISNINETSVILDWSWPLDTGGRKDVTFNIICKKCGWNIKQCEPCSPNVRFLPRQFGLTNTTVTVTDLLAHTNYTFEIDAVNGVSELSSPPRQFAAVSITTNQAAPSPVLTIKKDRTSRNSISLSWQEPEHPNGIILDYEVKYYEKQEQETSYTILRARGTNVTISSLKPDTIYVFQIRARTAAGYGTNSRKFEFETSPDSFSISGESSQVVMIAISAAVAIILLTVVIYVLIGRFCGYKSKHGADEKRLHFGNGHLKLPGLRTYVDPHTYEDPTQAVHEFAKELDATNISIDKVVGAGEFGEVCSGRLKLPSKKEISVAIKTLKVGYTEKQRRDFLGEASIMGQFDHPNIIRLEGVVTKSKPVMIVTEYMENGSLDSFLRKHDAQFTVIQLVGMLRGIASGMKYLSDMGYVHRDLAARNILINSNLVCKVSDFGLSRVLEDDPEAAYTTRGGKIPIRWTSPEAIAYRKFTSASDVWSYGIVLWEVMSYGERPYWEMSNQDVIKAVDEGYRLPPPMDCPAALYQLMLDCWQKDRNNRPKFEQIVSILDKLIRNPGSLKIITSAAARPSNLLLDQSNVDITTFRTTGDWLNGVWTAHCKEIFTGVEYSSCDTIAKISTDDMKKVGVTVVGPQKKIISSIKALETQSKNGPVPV
# Text: as §1
# FES = FES (Homo sapiens, UniProt P07332); conditions: read-out: Percent Control
# FES, sequence (P07332 whole entry): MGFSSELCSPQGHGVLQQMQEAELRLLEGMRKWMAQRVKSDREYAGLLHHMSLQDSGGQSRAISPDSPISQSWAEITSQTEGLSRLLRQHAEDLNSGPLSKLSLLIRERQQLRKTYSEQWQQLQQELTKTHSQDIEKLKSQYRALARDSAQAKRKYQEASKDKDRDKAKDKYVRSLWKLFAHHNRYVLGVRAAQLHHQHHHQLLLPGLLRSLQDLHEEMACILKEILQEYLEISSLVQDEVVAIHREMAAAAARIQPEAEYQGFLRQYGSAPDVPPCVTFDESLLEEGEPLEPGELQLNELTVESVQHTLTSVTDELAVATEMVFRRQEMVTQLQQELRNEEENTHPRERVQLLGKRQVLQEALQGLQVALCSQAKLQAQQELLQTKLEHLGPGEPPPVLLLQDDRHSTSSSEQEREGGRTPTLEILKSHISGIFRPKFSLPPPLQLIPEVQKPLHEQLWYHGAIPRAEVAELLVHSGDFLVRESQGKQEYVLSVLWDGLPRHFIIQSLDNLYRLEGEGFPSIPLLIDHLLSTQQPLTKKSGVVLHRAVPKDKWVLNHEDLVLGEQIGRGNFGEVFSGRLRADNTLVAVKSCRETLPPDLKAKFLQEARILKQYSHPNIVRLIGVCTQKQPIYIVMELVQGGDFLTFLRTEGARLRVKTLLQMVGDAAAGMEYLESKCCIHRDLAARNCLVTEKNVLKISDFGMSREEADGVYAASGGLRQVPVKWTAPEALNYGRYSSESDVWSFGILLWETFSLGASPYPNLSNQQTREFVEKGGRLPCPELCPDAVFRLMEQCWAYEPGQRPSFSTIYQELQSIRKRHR
# Text: as §1
# FGFR4 = FGFR4 (Homo sapiens, UniProt P22455); conditions: 1000 nM, read-out: Percent Control
# Text: as §1
# HCK = HCK (Homo sapiens, UniProt P08631); conditions: 1000 nM, read-out: Percent Control
# Text: as §1
# IKK-alpha = IKK-alpha (Homo sapiens, UniProt O15111); conditions: read-out: Percent Control
# IKK-alpha, sequence (O15111 whole entry): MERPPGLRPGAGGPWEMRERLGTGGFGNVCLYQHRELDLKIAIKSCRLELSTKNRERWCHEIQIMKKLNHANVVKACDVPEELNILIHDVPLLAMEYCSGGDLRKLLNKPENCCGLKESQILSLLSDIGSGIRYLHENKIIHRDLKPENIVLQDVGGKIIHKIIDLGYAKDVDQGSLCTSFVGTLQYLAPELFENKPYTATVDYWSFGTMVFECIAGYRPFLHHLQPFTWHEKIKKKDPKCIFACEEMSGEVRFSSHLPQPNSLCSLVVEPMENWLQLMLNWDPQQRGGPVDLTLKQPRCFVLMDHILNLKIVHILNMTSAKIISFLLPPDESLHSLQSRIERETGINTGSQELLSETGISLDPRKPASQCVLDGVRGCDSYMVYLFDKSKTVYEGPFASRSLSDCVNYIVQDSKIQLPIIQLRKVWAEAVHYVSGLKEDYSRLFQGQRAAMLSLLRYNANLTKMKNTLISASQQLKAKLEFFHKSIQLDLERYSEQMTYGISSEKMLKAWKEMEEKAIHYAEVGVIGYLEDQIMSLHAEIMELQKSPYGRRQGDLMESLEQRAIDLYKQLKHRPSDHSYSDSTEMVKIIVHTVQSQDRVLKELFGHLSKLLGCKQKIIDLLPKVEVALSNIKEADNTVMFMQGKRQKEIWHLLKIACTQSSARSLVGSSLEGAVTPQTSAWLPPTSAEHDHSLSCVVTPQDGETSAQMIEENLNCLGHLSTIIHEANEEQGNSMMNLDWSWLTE
# Text: as §1
# JNK2 = JNK2 (Homo sapiens, UniProt P45984); conditions: 1000 nM, read-out: Percent Control
# Text: as §1
# MAP3K1 = MAP3K1 (Homo sapiens, UniProt Q13233); conditions: compound concentration 100 nM; Entrez MAP3K1; read-out: Percent Control
# Text: as §1
# MAP3K4 = MAP3K4 (Homo sapiens, UniProt Q9Y6R4); conditions: 1000 nM, read-out: Percent Control
# Text: as §1
# MARK3 = MARK3 (Homo sapiens, UniProt P27448); conditions: 1000 nM, read-out: Percent Control
# Text: as §1
# MEK2 = MEK2 (Homo sapiens, UniProt P36507); conditions: compound concentration 100 nM; Entrez MAP2K2; read-out: Percent Control
# Text: as §1
# MLCK = MLCK (Homo sapiens, UniProt Q32MK0); conditions: 1000 nM, read-out: Percent Control
# Text: as §1
# MLK2 = MLK2 (Homo sapiens, UniProt Q02779); conditions: 1000 nM, read-out: Percent Control
# Text: as §1
# MTOR = MTOR (Homo sapiens, UniProt P42345); conditions: compound concentration 100 nM; Entrez MTOR; read-out: Percent Control
# Text: as §1
# NEK1 = NEK1 (Homo sapiens, UniProt Q96PY6); conditions: compound concentration 100 nM; Entrez NEK1; read-out: Percent Control
# Text: as §1
# NEK9 = NEK9 (Homo sapiens, UniProt Q8TD19); conditions: 1000 nM, read-out: Percent Control
# Text: as §1
# PAK3 = PAK3 (Homo sapiens, UniProt O75914); conditions: 1000 nM, read-out: Percent Control
# Text: as §1
# PDPK1 = PDPK1 (Homo sapiens, UniProt O15530); conditions: 1000 nM, read-out: Percent Control
# Text: as §1
# PIK3CB = PIK3CB (Homo sapiens, UniProt P42338); conditions: 1000 nM, read-out: Percent Control
# Text: as §1
# PKAC-beta = PKAC-beta (Homo sapiens, UniProt P22694); conditions: 1000 nM, read-out: Percent Control
# Text: as §1
# RIOK3 = RIOK3 (Homo sapiens, UniProt O14730); conditions: 1000 nM, read-out: Percent Control
# Text: as §1
# [1] = target: RSK4(Kin.Dom.1-N-terminal) (Homo sapiens, UniProt Q9UK32); conditions: compound concentration 100 nM; Entrez RPS6KA6; read-out: Percent Control
# Text: as §1
# SBK1 = SBK1 (Homo sapiens, UniProt Q52WX2); conditions: compound concentration 100 nM; Entrez SBK1; read-out: Percent Control
# Text: as §1
# TEC = TEC (Homo sapiens, UniProt P42680); conditions: compound concentration 100 nM; Entrez TEC; read-out: Percent Control
# Text: as §1
# TGFBR2 = TGFBR2 (Homo sapiens, UniProt P37173); conditions: compound concentration 100 nM; Entrez TGFBR2; read-out: Percent Control
# Text: as §1
# TIE1 = TIE1 (Homo sapiens, UniProt P35590); conditions: 1000 nM, read-out: Percent Control
# Text: as §1
# TNK2 = TNK2 (Homo sapiens, UniProt Q07912); conditions: read-out: Percent Control
# TNK2, sequence (Q07912 whole entry): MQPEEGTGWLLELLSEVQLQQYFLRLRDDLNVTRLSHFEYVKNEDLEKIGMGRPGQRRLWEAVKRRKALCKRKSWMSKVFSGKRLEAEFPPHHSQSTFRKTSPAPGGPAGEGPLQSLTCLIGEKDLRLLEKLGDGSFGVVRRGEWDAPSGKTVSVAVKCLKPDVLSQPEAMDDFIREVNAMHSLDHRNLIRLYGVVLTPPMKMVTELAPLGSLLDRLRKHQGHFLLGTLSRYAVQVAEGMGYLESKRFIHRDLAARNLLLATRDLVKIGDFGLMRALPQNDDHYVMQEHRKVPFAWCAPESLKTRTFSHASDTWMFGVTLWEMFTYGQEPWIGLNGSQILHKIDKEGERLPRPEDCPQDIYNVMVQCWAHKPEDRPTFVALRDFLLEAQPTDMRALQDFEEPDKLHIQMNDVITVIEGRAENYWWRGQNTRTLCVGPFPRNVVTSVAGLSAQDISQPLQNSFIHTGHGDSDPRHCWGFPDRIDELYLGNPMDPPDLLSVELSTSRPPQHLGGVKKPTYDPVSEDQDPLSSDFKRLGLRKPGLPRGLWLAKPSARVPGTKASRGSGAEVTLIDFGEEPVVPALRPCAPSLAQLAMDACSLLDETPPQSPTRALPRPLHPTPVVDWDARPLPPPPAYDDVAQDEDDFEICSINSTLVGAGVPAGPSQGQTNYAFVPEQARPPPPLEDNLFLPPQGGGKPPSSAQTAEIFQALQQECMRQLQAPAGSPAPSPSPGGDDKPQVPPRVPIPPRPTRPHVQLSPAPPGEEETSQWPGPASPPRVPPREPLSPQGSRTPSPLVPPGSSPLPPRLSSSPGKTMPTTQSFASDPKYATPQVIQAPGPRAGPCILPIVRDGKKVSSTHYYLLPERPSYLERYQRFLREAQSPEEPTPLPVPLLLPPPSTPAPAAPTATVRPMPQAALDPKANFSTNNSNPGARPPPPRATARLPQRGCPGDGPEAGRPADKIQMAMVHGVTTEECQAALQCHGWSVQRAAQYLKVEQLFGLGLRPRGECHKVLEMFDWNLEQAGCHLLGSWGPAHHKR
# Text: as §1
# WEE2 = WEE2 (Homo sapiens, UniProt P0C1S8); conditions: 1000 nM, read-out: Percent Control
# Text: as §1
# YANK1 = YANK1 (Homo sapiens, UniProt Q8WU08); conditions: 1000 nM, read-out: Percent Control
# Text: as §1
# YANK2 = YANK2 (Homo sapiens, UniProt Q9NY57); conditions: compound concentration 100 nM; Entrez STK32B; read-out: Percent Control
# Text: as §1
# YANK3 = YANK3 (Homo sapiens, UniProt Q86UX6); conditions: 1000 nM, read-out: Percent Control
# Text: as §1
# YES = YES (Homo sapiens, UniProt P07947); conditions: 1000 nM, read-out: Percent Control
# Text: as §1
smiles,measurement,setting,value
"CN1C(=O)[C@@H](N2CCc3c(nn(Cc4ccccc4)c3C(N)=O)C2=O)COc2cc(Cl)ccc21 [Compound 10, (S)-2-benzyl-6-(8-chloro-5-methyl-4-oxo-2,3,4,5-tetrahydrobenzo[b][1,4]oxazepin-3-yl)-7-oxo-4,5,6,7-tetrahydro-2H-pyrazolo[3,4-c]pyridine-3-carboxamide]",remaining binding at 1 µM,BUB1,78%
same,remaining binding at 1 µM,CAMK1G,88%
same,remaining binding at 1 µM,CAMK2B,80%
same,remaining binding at 1 µM,CAMK2D,89%
same,remaining binding at 1 µM,DLK,81%
same,remaining binding at 1 µM,DMPK2; 1000 nM,100%
same,remaining binding at 0.1 µM,"DMPK2; compound concentration 100 nM, Entrez CDC42BPG",92%
same,remaining binding at 1 µM,EPHA3; 1000 nM,100%
same,remaining binding at 0.1 µM,"EPHA3; compound concentration 100 nM, Entrez EPHA3",77%
same,remaining binding at 1 µM,FES; 1000 nM,100%
same,remaining binding at 0.1 µM,"FES; compound concentration 100 nM, Entrez FES",100%
same,remaining binding at 1 µM,FGFR4,84%
same,remaining binding at 1 µM,HCK,92%
same,remaining binding at 1 µM,IKK-alpha; 1000 nM,100%
same,remaining binding at 0.1 µM,"IKK-alpha; compound concentration 100 nM, Entrez CHUK",93%
same,remaining binding at 1 µM,JNK2,89%
same,remaining binding at 0.1 µM,MAP3K1,100%
same,remaining binding at 1 µM,MAP3K4,92%
same,remaining binding at 1 µM,MARK3,98%
same,remaining binding at 0.1 µM,MEK2,94%
same,remaining binding at 1 µM,MLCK,93%
same,remaining binding at 1 µM,MLK2,94%
same,remaining binding at 0.1 µM,MTOR,86%
same,remaining binding at 0.1 µM,NEK1,76%
same,remaining binding at 1 µM,NEK9,92%
same,remaining binding at 1 µM,PAK3,74%
same,remaining binding at 1 µM,PDPK1,91%
same,remaining binding at 1 µM,PIK3CB,88%
same,remaining binding at 1 µM,PKAC-beta,87%
same,remaining binding at 1 µM,RIOK3,77%
same,remaining binding at 0.1 µM,[1],100%
same,remaining binding at 0.1 µM,SBK1,68%
same,remaining binding at 0.1 µM,TEC,86%
same,remaining binding at 0.1 µM,TGFBR2,100%
same,remaining binding at 1 µM,TIE1,94%
same,remaining binding at 1 µM,TNK2; 1000 nM,98%
same,remaining binding at 0.1 µM,"TNK2; compound concentration 100 nM, Entrez TNK2",89%
same,remaining binding at 1 µM,WEE2,82%
same,remaining binding at 1 µM,YANK1,90%
same,remaining binding at 0.1 µM,YANK2,99%
same,remaining binding at 1 µM,YANK3,92%
same,remaining binding at 1 µM,YES,90%
